Experimental data from paper PMC10470521, “Structural basis of a bi-functional malonyl-CoA reductase (MCR) from the photosynthetic green non-sulfur bacterium Roseiflexus castenholzii” (mBio, 2023).

Key:
RfxMCR-C = biological target: T1, RfxMCR-C (Roseiflexus castenholzii, UniProt A7NN59); assay: X-ray crystal structure, […] Å; type: binding; details: SDR3 / ED interface
T1 construct: gene Rcas_2929; C-terminal fragment Gly573-Val1229 (SDR3-ED-SDR4), N-terminal His6 tag (pET28a), E. coli BL21(DE3)
T1 sequence (A7NN59 entry or part of it): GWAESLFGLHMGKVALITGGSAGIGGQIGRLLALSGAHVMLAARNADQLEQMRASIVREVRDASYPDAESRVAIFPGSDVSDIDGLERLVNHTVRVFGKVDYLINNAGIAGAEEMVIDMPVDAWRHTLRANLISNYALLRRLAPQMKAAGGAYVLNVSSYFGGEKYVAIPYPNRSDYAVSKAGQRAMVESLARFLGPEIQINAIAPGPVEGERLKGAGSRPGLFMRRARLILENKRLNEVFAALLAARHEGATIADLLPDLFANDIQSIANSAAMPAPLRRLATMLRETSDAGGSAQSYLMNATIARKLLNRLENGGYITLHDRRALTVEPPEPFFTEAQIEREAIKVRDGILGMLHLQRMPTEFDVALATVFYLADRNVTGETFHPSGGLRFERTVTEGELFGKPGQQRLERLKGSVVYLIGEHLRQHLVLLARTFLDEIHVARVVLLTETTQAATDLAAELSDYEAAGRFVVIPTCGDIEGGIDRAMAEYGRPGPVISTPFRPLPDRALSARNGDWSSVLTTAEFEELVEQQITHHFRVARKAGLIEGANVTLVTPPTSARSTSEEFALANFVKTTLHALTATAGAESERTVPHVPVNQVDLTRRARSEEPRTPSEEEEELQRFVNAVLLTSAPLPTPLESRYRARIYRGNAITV

RfxMCR-N = biological target: T2, RfxMCR-N (Roseiflexus castenholzii, UniProt A7NN59); assay: X-ray crystal structure, […] Å; type: binding; details: ternary complex with NADP+; SDR1 site; MSA not added, modelled in extra density; crystals grown in 1 M sodium malonate pH 5.0
T2 construct: gene Rcas_2929; N-terminal fragment Met1-Phe572 (SDR1-SDR2), C-terminal His6 tag (pET28a), E. coli BL21(DE3)
T2 sequence (A7NN59 entry or part of it): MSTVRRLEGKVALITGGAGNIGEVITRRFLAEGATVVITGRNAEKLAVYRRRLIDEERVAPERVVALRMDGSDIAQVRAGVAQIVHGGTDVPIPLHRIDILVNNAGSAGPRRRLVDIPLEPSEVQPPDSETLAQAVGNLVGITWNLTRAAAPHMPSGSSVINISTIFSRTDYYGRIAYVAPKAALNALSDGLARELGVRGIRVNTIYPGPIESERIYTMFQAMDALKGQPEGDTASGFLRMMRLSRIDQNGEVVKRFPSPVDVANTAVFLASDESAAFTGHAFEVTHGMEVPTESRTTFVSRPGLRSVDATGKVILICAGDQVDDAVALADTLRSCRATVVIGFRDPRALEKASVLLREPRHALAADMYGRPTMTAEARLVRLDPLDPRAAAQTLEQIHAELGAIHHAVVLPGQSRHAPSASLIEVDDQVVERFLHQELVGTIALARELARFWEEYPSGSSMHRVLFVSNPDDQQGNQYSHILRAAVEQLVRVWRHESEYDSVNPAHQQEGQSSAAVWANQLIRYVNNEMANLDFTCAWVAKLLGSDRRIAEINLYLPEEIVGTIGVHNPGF

full-length RfxMCR [1] = biological target: T3, full-length RfxMCR (Roseiflexus castenholzii, UniProt A7NN59, R799A); assay: NADPH oxidation at […] nm; type: biochemical; details: 0.4 mM NADPH, 5 mM MgCl2, 100 mM Tris-HCl pH 8.0, 150 mM NaCl, 50°C; apparent; overall two-step reduction; extra domain
T3 construct: gene Rcas_2929; full length Met1-Val1229, C-terminal His6 tag (pET20b), E. coli BL21(DE3); homodimer ~270 kDa
T3 sequence (A7NN59 entry or part of it R799A): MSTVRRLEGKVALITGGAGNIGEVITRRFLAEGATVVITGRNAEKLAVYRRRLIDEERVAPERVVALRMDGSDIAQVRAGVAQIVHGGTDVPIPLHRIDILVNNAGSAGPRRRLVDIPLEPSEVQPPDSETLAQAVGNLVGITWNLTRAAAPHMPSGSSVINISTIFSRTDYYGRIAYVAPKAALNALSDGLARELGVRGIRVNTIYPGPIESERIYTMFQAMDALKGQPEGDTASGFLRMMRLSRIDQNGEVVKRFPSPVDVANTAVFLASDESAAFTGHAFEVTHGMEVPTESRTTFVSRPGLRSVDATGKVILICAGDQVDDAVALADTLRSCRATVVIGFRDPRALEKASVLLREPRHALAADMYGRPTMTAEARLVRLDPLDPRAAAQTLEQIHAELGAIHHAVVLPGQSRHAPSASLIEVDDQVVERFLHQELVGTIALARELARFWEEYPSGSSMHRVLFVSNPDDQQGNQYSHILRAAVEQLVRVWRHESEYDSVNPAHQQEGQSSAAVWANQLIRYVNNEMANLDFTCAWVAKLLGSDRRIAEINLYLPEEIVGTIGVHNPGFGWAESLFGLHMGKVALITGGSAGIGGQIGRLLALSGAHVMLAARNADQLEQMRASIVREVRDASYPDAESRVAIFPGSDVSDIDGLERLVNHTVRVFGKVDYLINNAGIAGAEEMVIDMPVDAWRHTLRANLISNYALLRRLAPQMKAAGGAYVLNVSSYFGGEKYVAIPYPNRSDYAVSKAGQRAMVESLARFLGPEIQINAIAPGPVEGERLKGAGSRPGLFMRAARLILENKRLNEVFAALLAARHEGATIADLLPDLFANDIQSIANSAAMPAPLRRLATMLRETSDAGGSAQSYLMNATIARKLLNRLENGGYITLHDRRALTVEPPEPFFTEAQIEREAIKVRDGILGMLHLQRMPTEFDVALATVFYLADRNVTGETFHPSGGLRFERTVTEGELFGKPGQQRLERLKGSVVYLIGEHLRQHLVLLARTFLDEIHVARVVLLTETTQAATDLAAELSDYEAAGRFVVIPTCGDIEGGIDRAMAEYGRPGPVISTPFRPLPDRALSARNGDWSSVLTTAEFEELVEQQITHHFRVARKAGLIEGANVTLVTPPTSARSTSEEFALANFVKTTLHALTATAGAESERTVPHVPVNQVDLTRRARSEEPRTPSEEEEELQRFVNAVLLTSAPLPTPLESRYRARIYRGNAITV

full-length RfxMCR [2] = biological target: T4, full-length RfxMCR (Roseiflexus castenholzii, UniProt A7NN59, T165A); assay: NADPH oxidation at […] nm; type: biochemical; details: 0.4 mM NADPH, 5 mM MgCl2, 100 mM Tris-HCl pH 8.0, 150 mM NaCl, 50°C; apparent; overall two-step reduction; SDR1 site (second step, MSA to 3-HP)
T4 construct: gene Rcas_2929; full length Met1-Val1229, C-terminal His6 tag (pET20b), E. coli BL21(DE3); homodimer ~270 kDa

full-length RfxMCR [3] = biological target: T5, full-length RfxMCR (Roseiflexus castenholzii, UniProt A7NN59, R785A); assay: NADPH oxidation at […] nm; type: biochemical; details: 0.4 mM NADPH, 5 mM MgCl2, 100 mM Tris-HCl pH 8.0, 150 mM NaCl, 50°C; apparent; overall two-step reduction; extra domain
T5 construct: gene Rcas_2929; full length Met1-Val1229, C-terminal His6 tag (pET20b), E. coli BL21(DE3); homodimer ~270 kDa

full-length RfxMCR [4] = biological target: T6, full-length RfxMCR (Roseiflexus castenholzii, UniProt A7NN59, K182A); assay: NADPH oxidation at […] nm; type: biochemical; details: 0.4 mM NADPH, 5 mM MgCl2, 100 mM Tris-HCl pH 8.0, 150 mM NaCl, 50°C; apparent; overall two-step reduction
T6 construct: gene Rcas_2929; full length Met1-Val1229, C-terminal His6 tag (pET20b), E. coli BL21(DE3); homodimer ~270 kDa

full-length RfxMCR [5] = biological target: T7, full-length RfxMCR (Roseiflexus castenholzii, UniProt A7NN59, L795A); assay: NADPH oxidation at […] nm; type: biochemical; details: 0.4 mM NADPH, 5 mM MgCl2, 100 mM Tris-HCl pH 8.0, 150 mM NaCl, 50°C; apparent; overall two-step reduction
T7 construct: gene Rcas_2929; full length Met1-Val1229, C-terminal His6 tag (pET20b), E. coli BL21(DE3); homodimer ~270 kDa

full-length RfxMCR [6] = biological target: T8, full-length RfxMCR (Roseiflexus castenholzii, UniProt A7NN59, K753A); assay: NADPH oxidation at […] nm; type: biochemical; details: 0.4 mM NADPH, 5 mM MgCl2, 100 mM Tris-HCl pH 8.0, 150 mM NaCl, 50°C; apparent; overall two-step reduction
T8 construct: gene Rcas_2929; full length Met1-Val1229, C-terminal His6 tag (pET20b), E. coli BL21(DE3); homodimer ~270 kDa
T8 sequence (A7NN59 entry or part of it K753A): as the sequence (A7NN59 entry or part of it R799A) above, with K753A, A799R counted along it

full-length RfxMCR [7] = biological target: T9, full-length RfxMCR (Roseiflexus castenholzii, UniProt A7NN59, R746A); assay: NADPH oxidation at […] nm; type: biochemical; details: 0.4 mM NADPH, 5 mM MgCl2, 100 mM Tris-HCl pH 8.0, 150 mM NaCl, 50°C; apparent; overall two-step reduction; SDR3 site
T9 construct: gene Rcas_2929; full length Met1-Val1229, C-terminal His6 tag (pET20b), E. coli BL21(DE3); homodimer ~270 kDa
T9 sequence (A7NN59 entry or part of it R746A): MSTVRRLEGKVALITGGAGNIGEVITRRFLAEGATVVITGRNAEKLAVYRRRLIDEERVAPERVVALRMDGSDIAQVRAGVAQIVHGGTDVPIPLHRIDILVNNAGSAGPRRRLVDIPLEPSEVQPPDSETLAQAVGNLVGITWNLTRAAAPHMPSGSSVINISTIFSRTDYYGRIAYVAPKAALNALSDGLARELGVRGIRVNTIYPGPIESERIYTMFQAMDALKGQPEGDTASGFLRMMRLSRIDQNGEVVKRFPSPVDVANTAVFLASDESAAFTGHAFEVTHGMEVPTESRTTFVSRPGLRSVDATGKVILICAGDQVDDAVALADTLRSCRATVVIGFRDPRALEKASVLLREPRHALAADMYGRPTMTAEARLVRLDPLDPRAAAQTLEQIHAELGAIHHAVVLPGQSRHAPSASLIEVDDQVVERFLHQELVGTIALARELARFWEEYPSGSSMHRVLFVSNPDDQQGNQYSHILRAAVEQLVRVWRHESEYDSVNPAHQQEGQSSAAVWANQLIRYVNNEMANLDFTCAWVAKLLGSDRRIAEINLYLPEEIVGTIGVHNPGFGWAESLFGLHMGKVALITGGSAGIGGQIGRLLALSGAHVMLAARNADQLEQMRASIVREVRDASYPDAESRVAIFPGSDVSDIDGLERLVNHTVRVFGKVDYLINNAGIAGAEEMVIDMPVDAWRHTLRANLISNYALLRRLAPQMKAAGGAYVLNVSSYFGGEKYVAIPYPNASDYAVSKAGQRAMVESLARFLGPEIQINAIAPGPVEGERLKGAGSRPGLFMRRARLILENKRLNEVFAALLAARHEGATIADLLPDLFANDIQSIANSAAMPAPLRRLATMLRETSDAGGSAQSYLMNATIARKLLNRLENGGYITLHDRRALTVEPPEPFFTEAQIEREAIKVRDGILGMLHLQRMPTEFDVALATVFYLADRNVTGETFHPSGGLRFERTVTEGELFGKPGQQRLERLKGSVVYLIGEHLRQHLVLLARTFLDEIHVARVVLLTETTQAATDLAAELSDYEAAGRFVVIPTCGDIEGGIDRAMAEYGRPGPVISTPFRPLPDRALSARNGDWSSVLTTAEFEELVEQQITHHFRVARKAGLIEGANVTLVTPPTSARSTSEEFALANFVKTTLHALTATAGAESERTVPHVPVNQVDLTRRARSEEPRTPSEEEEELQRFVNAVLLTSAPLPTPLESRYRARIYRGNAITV

full-length RfxMCR [8] = biological target: T10, full-length RfxMCR (Roseiflexus castenholzii, UniProt A7NN59, Y749A); assay: NADPH oxidation at […] nm; type: biochemical; details: 0.4 mM NADPH, 5 mM MgCl2, 100 mM Tris-HCl pH 8.0, 150 mM NaCl, 50°C; apparent; overall two-step reduction
T10 construct: gene Rcas_2929; full length Met1-Val1229, C-terminal His6 tag (pET20b), E. coli BL21(DE3); homodimer ~270 kDa
T10 sequence (A7NN59 entry or part of it Y749A): as the sequence (A7NN59 entry or part of it R799A) above, with Y749A, A799R counted along it

full-length RfxMCR [9] = biological target: T11, full-length RfxMCR (Roseiflexus castenholzii, UniProt A7NN59, S731A); assay: NADPH oxidation at […] nm; type: biochemical; details: 0.4 mM NADPH, 5 mM MgCl2, 100 mM Tris-HCl pH 8.0, 150 mM NaCl, 50°C; apparent; overall two-step reduction; SDR3 site
T11 construct: gene Rcas_2929; full length Met1-Val1229, C-terminal His6 tag (pET20b), E. coli BL21(DE3); homodimer ~270 kDa

full-length RfxMCR [10] = biological target: T12, full-length RfxMCR (Roseiflexus castenholzii, UniProt A7NN59, Y178A); assay: NADPH oxidation at […] nm; type: biochemical; details: 0.4 mM NADPH, 5 mM MgCl2, 100 mM Tris-HCl pH 8.0, 150 mM NaCl, 50°C; apparent; overall two-step reduction
T12 construct: gene Rcas_2929; full length Met1-Val1229, C-terminal His6 tag (pET20b), E. coli BL21(DE3); homodimer ~270 kDa
T12 sequence (A7NN59 entry or part of it Y178A): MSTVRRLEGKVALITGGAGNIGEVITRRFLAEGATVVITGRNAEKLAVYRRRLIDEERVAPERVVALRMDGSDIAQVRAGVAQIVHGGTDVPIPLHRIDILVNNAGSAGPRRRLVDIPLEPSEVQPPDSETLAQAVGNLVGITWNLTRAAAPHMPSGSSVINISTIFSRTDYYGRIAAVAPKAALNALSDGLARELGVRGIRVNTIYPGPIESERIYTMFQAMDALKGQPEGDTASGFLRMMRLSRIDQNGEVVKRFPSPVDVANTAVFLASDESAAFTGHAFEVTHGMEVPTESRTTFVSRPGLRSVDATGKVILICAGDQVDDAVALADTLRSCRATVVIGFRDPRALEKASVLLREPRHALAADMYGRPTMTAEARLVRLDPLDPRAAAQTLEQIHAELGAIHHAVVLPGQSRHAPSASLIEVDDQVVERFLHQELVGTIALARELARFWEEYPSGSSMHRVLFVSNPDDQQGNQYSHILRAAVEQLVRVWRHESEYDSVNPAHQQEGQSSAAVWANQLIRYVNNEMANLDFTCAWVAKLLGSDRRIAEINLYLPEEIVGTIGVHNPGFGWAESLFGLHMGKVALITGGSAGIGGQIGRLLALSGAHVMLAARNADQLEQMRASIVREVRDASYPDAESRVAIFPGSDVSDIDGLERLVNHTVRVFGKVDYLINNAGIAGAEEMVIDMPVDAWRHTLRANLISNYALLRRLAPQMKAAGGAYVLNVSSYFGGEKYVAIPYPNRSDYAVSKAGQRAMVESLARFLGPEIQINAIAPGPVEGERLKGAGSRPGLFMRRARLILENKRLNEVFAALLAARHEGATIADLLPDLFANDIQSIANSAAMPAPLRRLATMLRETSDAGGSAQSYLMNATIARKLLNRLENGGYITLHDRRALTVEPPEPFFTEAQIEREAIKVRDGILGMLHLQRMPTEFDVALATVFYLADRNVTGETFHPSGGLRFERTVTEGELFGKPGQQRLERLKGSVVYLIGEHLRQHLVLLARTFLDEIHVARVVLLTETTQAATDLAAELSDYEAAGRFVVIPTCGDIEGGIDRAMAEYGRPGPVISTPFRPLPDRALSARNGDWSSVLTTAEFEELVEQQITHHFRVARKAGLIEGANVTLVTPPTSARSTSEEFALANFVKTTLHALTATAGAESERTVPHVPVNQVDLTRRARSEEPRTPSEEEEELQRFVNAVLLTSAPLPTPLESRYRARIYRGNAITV

[11] = biological target: RfxMCR-C (Gly573-Val1229) (Roseiflexus castenholzii DSM 13941) (UniProt A7NN59); assay: crystal structure; RfxMCR-C with NADP+ and MSA; 1.6 M sodium formate, 0.1 M Bis-tris propane pH 7.0, 16°C; P6(5)22, dimer by crystal packing; 2.3 Å

For `NC(=O)c1ccc[n+]([C@@H]2O[C@H](COP(=O)(O)OP(=O)(O)OC[C@H]3O[C@@H](n4cnc5c(N)ncnc54)[C@H](OP(=O)(O)O)[C@@H]3O)[C@@H](O)[C@H]2O)c1` [NADP^+], the “X-ray crystal structure, 2.3 Å” value (RfxMCR-C; ternary complex with MSA) was “a cofactor NADP^+ and intermediate MSA were resolved at the interface between the SDR3”.

With `O=CCC(=O)O` [malonate semialdehyde] the “X-ray crystal structure, 2.0 Å” value (RfxMCR-N) was “extra electron density that precisely matched the reduction intermediate MSA” and the “X-ray crystal structure, 2.3 Å” value (RfxMCR-C; ternary complex with NADP+, MSA not added, modelled in density) was “a cofactor NADP^+ and intermediate MSA were resolved at the interface between the SDR3”.

With `CC(C)(COP(=O)(O)OP(=O)(O)OC[C@H]1O[C@@H](n2cnc3c(N)ncnc32)[C@H](O)[C@@H]1OP(=O)(O)O)[C@@H](O)C(=O)NCCC(=O)NCCSC(=O)CC(=O)O` [malonyl-CoA] the overall enzymatic activity (full-length RfxMCR [1]) was “Ser731, Tyr749, Lys753, and Arg799 completely eliminated enzymatic activity”, the overall enzymatic activity (full-length RfxMCR [2]) was “Site-directed mutation of Thr165, Tyr172, Arg175, Tyr178, and Lys182 to Ala residues” and the overall enzymatic activity (full-length RfxMCR [3]) was “mutagenesis of Arg746, Arg785, and Leu795”. For the same compound, the overall enzymatic activity (full-length RfxMCR [4]) was “Site-directed mutation of Thr165, Tyr172, Arg175, Tyr178, and Lys182 to Ala residues”, the overall enzymatic activity (full-length RfxMCR [5]) was “mutagenesis of Arg746, Arg785, and Leu795” and the overall enzymatic activity (full-length RfxMCR [6]) was “Ser731, Tyr749, Lys753, and Arg799 completely eliminated enzymatic activity”. The overall enzymatic activity (full-length RfxMCR [7]) was “mutagenesis of Arg746, Arg785, and Leu795”, the overall enzymatic activity (full-length RfxMCR [8]) was “Ser731, Tyr749, Lys753, and Arg799 completely eliminated enzymatic activity” and the overall enzymatic activity (full-length RfxMCR [9]) was “Ser731, Tyr749, Lys753, and Arg799 completely eliminated enzymatic activity”. The overall enzymatic activity (full-length RfxMCR [10]) was “Site-directed mutation of Thr165, Tyr172, Arg175, Tyr178, and Lys182 to Ala residues”.

For “RfxMCR-C (Gly573-Val1229) (from UniProt A7NN59 573-1229) (domain or fragment)”, the stoichiometry N [11] was 2.
